The values that follow come from patent publication US9446130B2, “BTK inhibitors” (MERCK SHARP & DOHME CORP., priority 2013, dated 2016).

Each structure is given as a SMILES string.

This assay deals with BTK enzyme (hBTK, full-length recombinant) (Homo sapiens (Human), UniProt Q06187). Nature of the assay: Btk enzyme activity assay, Method B: LANCE TR-FRET. Conditions: 25 μM ATP, 60 minute compound & enzyme incubation. It is filed as biochemical. How it is done: Also BTK enzymatic activity was determined with the LANCE (Lanthanide Chelate Excite) TR-FRET (Time-resolved fluorescence resonance energy transfer) assay. […] The final reaction in each well of 10 μL consists of 100 pM hBTK, 2 μM biotin-A5-peptide, and 25 μM ATP. Phosphorylation reactions were allowed to proceed for 120 minutes. […] After 60 minutes incubation with detection reagents, reaction plates were read on a PerkinElmer EnVision plate reader using standard TR-FRET protocol. Briefly, excitation of donor molecules (Eu-chelate:anti-phospho-antibody) with a laser light source at 337 nm produces energy that can be transferred to Dylight-650 acceptor molecules if this donor:acceptor pair is within close proximity. Fluorescence intensity at both 665 nm (acceptor) and 615 nm (donor) are measured and a TR-FRET ratio calculated for each well (acceptor intensity/donor intensity). IC50 values were determined by 4 parameter robust fit of TR-FRET ratio values vs. (Log10) compound concentrations. BTK enzymatic activity was determined with the LANCE (Lanthanide Chelate Excite) TR-FRET (Time-resolved fluorescence resonance energy transfer) assay. […] The final reaction in each well of 10 μL consists of 50 pM hBTK, 2 μM biotin-A5-peptide, and 25 μM ATP. Phosphorylation reactions were allowed to proceed for 120 minutes. […] After 60 minutes incubation with detection reagents, reaction plates were read on a PerkinElmer EnVision plate reader using standard TR-FRET protocol. Briefly, excitation of donor molecules (Eu-chelate:anti-phospho-antibody) with a laser light source at 337 nm produces energy that can be transferred to Dylight-650 acceptor molecules if this donor:acceptor pair is within close proximity. Fluorescence intensity at both 665 nm (acceptor) and 615 nm (donor) are measured and a TR-FRET ratio calculated for each well (acceptor intensity/donor intensity). IC50 values were determined by 4 parameter robust fit of TR-FRET ratio values vs. (Log10) compound concentrations.
BTK enzyme (hBTK, full-length recombinant), sequence (Q06187 whole entry): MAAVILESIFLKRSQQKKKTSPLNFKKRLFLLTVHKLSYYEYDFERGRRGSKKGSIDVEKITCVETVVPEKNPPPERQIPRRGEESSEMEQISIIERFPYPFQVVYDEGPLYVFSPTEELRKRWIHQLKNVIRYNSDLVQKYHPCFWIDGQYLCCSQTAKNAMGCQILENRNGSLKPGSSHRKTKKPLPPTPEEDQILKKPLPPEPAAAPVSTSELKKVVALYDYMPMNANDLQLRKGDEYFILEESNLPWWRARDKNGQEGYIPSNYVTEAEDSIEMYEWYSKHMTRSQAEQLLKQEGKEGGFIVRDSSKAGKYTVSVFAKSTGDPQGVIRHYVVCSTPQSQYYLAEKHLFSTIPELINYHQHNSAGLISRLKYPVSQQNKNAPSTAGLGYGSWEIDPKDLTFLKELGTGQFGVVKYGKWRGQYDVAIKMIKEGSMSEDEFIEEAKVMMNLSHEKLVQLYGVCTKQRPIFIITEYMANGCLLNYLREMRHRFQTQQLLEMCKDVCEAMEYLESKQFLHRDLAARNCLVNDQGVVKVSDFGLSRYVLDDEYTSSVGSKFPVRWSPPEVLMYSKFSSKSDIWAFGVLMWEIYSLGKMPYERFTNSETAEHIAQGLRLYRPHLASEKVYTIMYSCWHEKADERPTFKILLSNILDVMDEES
Background: Time-resolved FRET reads energy transfer from a long-lived donor to a nearby acceptor.
As to `CCn1cc2c(n1)CCC[C@@H]2n1nc(-c2ccc(C(=O)Nc3cc(C(F)(F)F)ccn3)cc2)c2c(N)ncnc21` [Example 14, (S)-4-(4-amino-1-(2-ethyl-4,5,6,7-tetrahydro-2H-indazol-4-yl)-1H-pyrazolo[3,4-d]pyrimidin-3-yl)-N-(4-(trifluoromethyl)pyridin-2-yl)benzamide], the IC50 was determined as 54 nM.

For the compound `CC(C)Oc1ccnc(NC(=O)c2ccc(-c3nc(N4CCn5c(nnc5C(F)(F)F)C4)n4ccnc(N)c34)cc2)c1` [Example 25, 4-(8-amino-3-(3-(trifluoromethyl)-5,6-dihydro-[1,2,4]triazolo[4,3-a]pyrazin-7(8H)-yl)imidazo[1,5-a]pyrazin-1-yl)-N-(4-isopropoxypyridin-2-yl)benzamide], the IC50 is 43 nM.

With `CCn1ncc2c1CCC[C@H]2n1nc(-c2ccc(C(=O)Nc3cc(C(F)(F)F)ccn3)cc2)c2c(N)ncnc21` [Example 11, (R)-4-(4-amino-1-(1-ethyl-4,5,6,7-tetrahydro-1H-indazol-4-yl)-1H-pyrazolo[3,4-d]pyrimidin-3-yl)-N-(4-(trifluoromethyl)pyridin-2-yl)benzamide], the IC50 was found to be 3.2 nM.

`Nc1ncnc2c1c(-c1ccc(C(=O)Nc3cc(C(F)(F)F)ccn3)cc1)nn2[C@@H]1CCCc2nn(CCO)cc21` [Example 16, (R)-4-(4-amino-1-(2-(2-hydroxyethyl)-4,5,6,7-tetrahydro-2H-indazol-4-yl)-1H-pyrazolo[3,4-d]pyrimidin-3-yl)-N-(4-(trifluoromethyl)pyridin-2-yl)benzamide]: the IC50 stood at 0.45 nM.

Regarding `Nc1nccn2c([C@@H]3CCn4c(nnc4C(F)(F)F)C3)nc(-c3ccc(C(=O)Nc4cc(C(F)(F)F)ccn4)cc3)c12` [Example 22, (R)-4-(8-amino-3-(3-(trifluoromethyl)-5,6,7,8-tetrahydro-[1,2,4]triazolo[4,3-a]pyridin-7-yl)imidazo[1,5-a]pyrazin-1-yl)-N-(4-(trifluoromethyl)pyridin-2-yl)benzamide], the IC50 came to 11 nM.

As for `CCn1ncc2c1CCC[C@@H]2n1nc(-c2ccc(C(=O)Nc3cc(C(F)(F)F)ccn3)cc2)c2c(N)ncnc21` [Example 13, (S)-4-(4-amino-1-(1-ethyl-4,5,6,7-tetrahydro-1H-indazol-4-yl)-1H-pyrazolo[3,4-d]pyrimidin-3-yl)-N-(4-(trifluoromethyl)pyridin-2-yl)benzamide], the half-maximal inhibitory concentration (IC50) was determined as 5.9 nM.

Turning to `Cn1cc2c(n1)CCC[C@H]2n1nc(-c2ccc(C(=O)Nc3cc(C(F)(F)F)ccn3)cc2)c2c(N)ncnc21` [Example 8, (R)-4-(4-amino-1-(2-methyl-4,5,6,7-tetrahydro-2H-indazol-4-yl)-1H-pyrazolo[3,4-d]pyrimidin-3-yl)-N-(4-(trifluoromethyl)pyridin-2-yl)benzamide], the IC50 was found to be 3.2 nM.

Turning to `Nc1ncnc2c1c(-c1ccc(C(=O)Nc3cc(C(F)(F)F)ccn3)cc1)nn2[C@H]1CCCc2c1cnn2CCO` [Example 17, (S)-4-(4-amino-1-(1-(2-hydroxyethyl)-4,5,6,7-tetrahydro-1H-indazol-4-yl)-1H-pyrazolo[3,4-d]pyrimidin-3-yl)-N-(4-(trifluoromethyl)pyridin-2-yl)benzamide], the IC50 was 2.1 nM.

As for `Cn1ncc2c1CCC[C@H]2c1nc(-c2ccc(C(=O)Nc3cc(C(F)(F)F)ccn3)cc2)c2c(N)nccn12` [Example 23, (R)-4-(8-amino-3-(1-methyl-4,5,6,7-tetrahydro-1H-indazol-4-yl)imidazo[1,5-a]pyrazin-1-yl)-N-(4-(trifluoromethyl)pyridin-2-yl)benzamide], the IC50 turned out to be 1000 nM.

As to `Nc1ncnc2c1c(-c1ccc(C(=O)Nc3cc(C(F)(F)F)ccn3)cc1)nn2[C@@H]1CCCc2[nH]ncc21` [Example 5, (R)-4-(4-amino-1-(4,5,6,7-tetrahydro-1H-indazol-4-yl)-1H-pyrazolo[3,4-d]pyrimidin-3-yl)-N-(4-(trifluoromethyl)pyridin-2-yl)benzamide], the IC50 was 0.52 nM.

In the case of `Cn1ncc2c1CCC[C@]2(O)c1nc(-c2ccc(C(=O)Nc3cc(C(F)(F)F)ccn3)cc2)c2c(N)nccn12` [Example 3, (R)-4-(8-amino-3-(4-hydroxy-1-methyl-4,5,6,7-tetrahydro-1H-indazol-4-yl)imidazo[1,5-a]pyrazin-1-yl)-N-(4-(trifluoromethyl)pyridin-2-yl)benzamide], the IC50 turned out to be 2 nM.

Take `Nc1ncnc2c1c(-c1ccc(C(=O)Nc3cc(C(F)(F)F)ccn3)cc1)nn2[C@@H]1CCCc2c1cnn2CCO` [Example 15, (R)-4-(4-amino-1-(1-(2-hydroxyethyl)-4,5,6,7-tetrahydro-1H-indazol-4-yl)-1H-pyrazolo[3,4-d]pyrimidin-3-yl)-N-(4-(trifluoromethyl)pyridin-2-yl)benzamide]: the IC50 came out at 1.1 nM.

`Cn1ncc2c1CCC[C@@H]2c1nc(-c2ccc(C(=O)Nc3cc(C(F)(F)F)ccn3)cc2)c2c(N)nccn12` [Example 24, (S)-4-(8-amino-3-(1-methyl-4,5,6,7-tetrahydro-1H-indazol-4-yl)imidazo[1,5-a]pyrazin-1-yl)-N-(4-(trifluoromethyl)pyridin-2-yl)benzamide]: the IC50 worked out at 740 nM.

On to `Nc1ncnc2c1c(-c1ccc(C(=O)Nc3cc(C(F)(F)F)ccn3)cc1)nn2[C@H]1CCCc2[nH]ncc21` [Example 6, (S)-4-(4-amino-1-(4,5,6,7-tetrahydro-1H-indazol-4-yl)-1H-pyrazolo[3,4-d]pyrimidin-3-yl)-N-(4-(trifluoromethyl)pyridin-2-yl)benzamide], for which the IC50 is 60 nM.

As to `Cn1cc2c(n1)CCC[C@@H]2n1nc(-c2ccc(C(=O)Nc3cc(C(F)(F)F)ccn3)cc2)c2c(N)ncnc21` [Example 10, (S)-4-(4-amino-1-(2-methyl-4,5,6,7-tetrahydro-2H-indazol-4-yl)-1H-pyrazolo[3,4-d]pyrimidin-3-yl)-N-(4-(trifluoromethyl)pyridin-2-yl)benzamide], the IC50 came to 83 nM.

Regarding `Nc1nccn2c([C@H]3CCCn4c(C5CC5)nnc43)nc(-c3ccc(C(=O)Nc4cc(C(F)(F)F)ccn4)cc3)c12` [Example 20, (R)-4-(8-amino-3-(3-cyclopropyl-5,6,7,8-tetrahydro-[1,2,4]triazolo[4,3-a]pyridin-8-yl)imidazo[1,5-a]pyrazin-1-yl)-N-(4-(trifluoromethyl)pyridin-2-yl)benzamide], the IC50 came to 56 nM.

In the case of `Nc1ncnc2c1c(-c1ccc(C(=O)Nc3cc(C(F)(F)F)ccn3)cc1)nn2[C@H]1CCCc2nn(CCO)cc21` [Example 18, (S)-4-(4-amino-1-(2-(2-hydroxyethyl)-4,5,6,7-tetrahydro-2H-indazol-4-yl)-1H-pyrazolo[3,4-d]pyrimidin-3-yl)-N-(4-(trifluoromethyl)pyridin-2-yl)benzamide], the IC50 was determined as 1.3 nM.

With `Nc1nccn2c([C@H]3CCn4c(nnc4C(F)(F)F)C3)nc(-c3ccc(C(=O)Nc4cc(C(F)(F)F)ccn4)cc3)c12` [Example 21, (S)-4-(8-amino-3-(3-(trifluoromethyl)-5,6,7,8-tetrahydro-[1,2,4]triazolo[4,3-a]pyridin-7-yl)imidazo[1,5-a]pyrazin-1-yl)-N-(4-(trifluoromethyl)pyridin-2-yl)benzamide], the IC50 was determined as 0.81 nM.

Regarding `CCn1cc2c(n1)CCC[C@H]2n1nc(-c2ccc(C(=O)Nc3cc(C(F)(F)F)ccn3)cc2)c2c(N)ncnc21` [Example 12, (R)-4-(4-amino-1-(2-ethyl-4,5,6,7-tetrahydro-2H-indazol-4-yl)-1H-pyrazolo[3,4-d]pyrimidin-3-yl)-N-(4-(trifluoromethyl)pyridin-2-yl)benzamide], the IC50 was 13 nM.

Turning to `Cn1ncc2c1CCC[C@@]2(O)c1nc(-c2ccc(C(=O)Nc3cc(C(F)(F)F)ccn3)cc2)c2c(N)nccn12` [Example 2, (S)-4-(8-amino-3-(4-hydroxy-1-methyl-4,5,6,7-tetrahydro-1H-indazol-4-yl)imidazo[1,5-a]pyrazin-1-yl)-N-(4-(trifluoromethyl)pyridin-2-yl)benzamide], the IC50 was determined as 0.33 nM.

With `Nc1nccn2c([C@@H]3CCCn4c(C5CC5)nnc43)nc(-c3ccc(C(=O)Nc4cc(C(F)(F)F)ccn4)cc3)c12` [Example 19, (S)-4-(8-amino-3-(3-cyclopropyl-5,6,7,8-tetrahydro-[1,2,4]triazolo[4,3-a]pyridin-8-yl)imidazo[1,5-a]pyrazin-1-yl)-N-(4-(trifluoromethyl)pyridin-2-yl)benzamide], the IC50 worked out at 67 nM.

Turning to `Cn1ncc2c1CCC[C@H]2n1nc(-c2ccc(C(=O)Nc3cc(C(F)(F)F)ccn3)cc2)c2c(N)ncnc21` [Example 7, (R)-4-(4-amino-1-(1-methyl-4,5,6,7-tetrahydro-1H-indazol-4-yl)-1H-pyrazolo[3,4-d]pyrimidin-3-yl)-N-(4-(trifluoromethyl)pyridin-2-yl)benzamide], the IC50 amounted to 5.9 nM.

A word on the IC50: it is the concentration needed to halve the response being measured.
